Measured values published in PMC5622171 (Nature Communications, 2017).

Key:
Test in all cases: KINOMEscan kinase profiling
Format in all cases: binding
AAK1 = biological target: T1, AAK1 (Homo sapiens, UniProt Q2M2I8); settings: read-out: %Inhibition by 10 μM SPA70
T1 construct: purchased DiscoverX (Ambit Biosciences) KINOMEscan
Outline: (§1)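 KINOMEscan profiling followed a published protocol. Kinases whose inhibition exceeded a set cut-off were then tested in a dilution series beginning at 30 µM.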

ABL1-nonphosphorylated = biological target: T2, ABL1-nonphosphorylated (Homo sapiens, UniProt P00519); settings: read-out: %Inhibition by 10 μM SPA70
T2 construct: purchased DiscoverX (Ambit Biosciences) KINOMEscan
Outline: as §1

ACVR2B = biological target: T3, ACVR2B (Homo sapiens, UniProt Q13705)
T3 construct: purchased DiscoverX (Ambit Biosciences) KINOMEscan
Outline: as §1

ANKK1 = biological target: T4, ANKK1 (Homo sapiens, UniProt Q8NFD2); settings: read-out: %Inhibition by 10 μM SPA70
T4 construct: purchased DiscoverX (Ambit Biosciences) KINOMEscan
Outline: as §1

AURKA = biological target: T5, AURKA (Homo sapiens, UniProt O14965); settings: read-out: %Inhibition by 10 μM SPA70
T5 construct: purchased DiscoverX (Ambit Biosciences) KINOMEscan
Outline: as §1

BLK = biological target: T6, BLK (Homo sapiens, UniProt P51451); settings: read-out: %Inhibition by 10 μM SPA70
T6 construct: purchased DiscoverX (Ambit Biosciences) KINOMEscan
Outline: as §1

CAMK2A = biological target: T7, CAMK2A (Homo sapiens, UniProt Q9UQM7); settings: read-out: %Inhibition by 10 μM SPA70
T7 construct: purchased DiscoverX (Ambit Biosciences) KINOMEscan
Outline: as §1

CAMK2B = biological target: T8, CAMK2B (Homo sapiens, UniProt Q13554); settings: read-out: %Inhibition by 10 μM SPA70
T8 construct: purchased DiscoverX (Ambit Biosciences) KINOMEscan
Outline: as §1

DMPK = biological target: T9, DMPK (Homo sapiens, UniProt Q09013); settings: read-out: %Inhibition by 10 μM SPA70
T9 construct: purchased DiscoverX (Ambit Biosciences) KINOMEscan
Outline: as §1

ERBB3 = biological target: T10, ERBB3 (Homo sapiens, UniProt P21860); settings: read-out: %Inhibition by 10 μM SPA70
T10 construct: purchased DiscoverX (Ambit Biosciences) KINOMEscan
Outline: as §1

ERBB4 = biological target: T11, ERBB4 (Homo sapiens, UniProt Q15303); settings: read-out: %Inhibition by 10 μM SPA70
T11 construct: purchased DiscoverX (Ambit Biosciences) KINOMEscan
Outline: as §1

FGFR2 = biological target: T12, FGFR2 (Homo sapiens, UniProt P21802); settings: read-out: %Inhibition by 10 μM SPA70
T12 construct: purchased DiscoverX (Ambit Biosciences) KINOMEscan
Outline: as §1

FLT3 = biological target: T13, FLT3 (Homo sapiens, UniProt P36888); settings: read-out: %Inhibition by 10 μM SPA70
T13 construct: purchased DiscoverX (Ambit Biosciences) KINOMEscan
Outline: as §1

FLT4 = biological target: T14, FLT4 (Homo sapiens, UniProt P35916); settings: read-out: %Inhibition by 10 μM SPA70
T14 construct: purchased DiscoverX (Ambit Biosciences) KINOMEscan
Outline: as §1

GRK4 = biological target: T15, GRK4 (Homo sapiens, UniProt P32298); settings: read-out: %Inhibition by 10 μM SPA70
T15 construct: purchased DiscoverX (Ambit Biosciences) KINOMEscan
Outline: as §1

HIPK2 = biological target: T16, HIPK2 (Homo sapiens, UniProt Q9H2X6); settings: read-out: %Inhibition by 10 μM SPA70
T16 construct: purchased DiscoverX (Ambit Biosciences) KINOMEscan
Outline: as §1

JNK3 = biological target: T17, JNK3 (Homo sapiens, UniProt P53779)
T17 construct: purchased DiscoverX (Ambit Biosciences) KINOMEscan
Outline: as §1

LATS2 = biological target: T18, LATS2 (Homo sapiens, UniProt Q9NRM7)
T18 construct: purchased DiscoverX (Ambit Biosciences) KINOMEscan
Outline: as §1

LRRK2 = biological target: T19, LRRK2 (Homo sapiens, UniProt Q5S007); settings: read-out: %Inhibition by 10 μM SPA70
T19 construct: purchased DiscoverX (Ambit Biosciences) KINOMEscan
Outline: as §1

LZK = biological target: T20, LZK (Homo sapiens, UniProt O43283)
T20 construct: purchased DiscoverX (Ambit Biosciences) KINOMEscan
Outline: as §1

MAP3K1 = biological target: T21, MAP3K1 (Homo sapiens, UniProt Q13233); settings: read-out: %Inhibition by 10 μM SPA70
T21 construct: purchased DiscoverX (Ambit Biosciences) KINOMEscan
Outline: as §1

MAP3K15 = biological target: T22, MAP3K15 (Homo sapiens, UniProt Q6ZN16); settings: read-out: %Inhibition by 10 μM SPA70
T22 construct: purchased DiscoverX (Ambit Biosciences) KINOMEscan
Outline: as §1

MAP4K2 = biological target: T23, MAP4K2 (Homo sapiens, UniProt Q12851); settings: read-out: %Inhibition by 10 μM SPA70
T23 construct: purchased DiscoverX (Ambit Biosciences) KINOMEscan
Outline: as §1

MAP4K3 = biological target: T24, MAP4K3 (Homo sapiens, UniProt Q8IVH8)
T24 construct: purchased DiscoverX (Ambit Biosciences) KINOMEscan
Outline: as §1

MKNK1 = biological target: T25, MKNK1 (Homo sapiens, UniProt Q9BUB5); settings: read-out: %Inhibition by 10 μM SPA70
T25 construct: purchased DiscoverX (Ambit Biosciences) KINOMEscan
Outline: as §1

MLK1 = biological target: T26, MLK1 (Homo sapiens, UniProt P80192); settings: read-out: %Inhibition by 10 μM SPA70
T26 construct: purchased DiscoverX (Ambit Biosciences) KINOMEscan
Outline: as §1

MRCKA = biological target: T27, MRCKA (Homo sapiens, UniProt Q5VT25); settings: read-out: %Inhibition by 10 μM SPA70
T27 construct: purchased DiscoverX (Ambit Biosciences) KINOMEscan
Outline: as §1

MST1 = biological target: T28, MST1 (Homo sapiens, UniProt Q13043)
T28 construct: purchased DiscoverX (Ambit Biosciences) KINOMEscan
Outline: as §1

PIM2 = biological target: T29, PIM2 (Homo sapiens, UniProt Q9P1W9); settings: read-out: %Inhibition by 10 μM SPA70
T29 construct: purchased DiscoverX (Ambit Biosciences) KINOMEscan
Outline: as §1

PIP5K1A = biological target: T30, PIP5K1A (Homo sapiens, UniProt Q99755); settings: read-out: %Inhibition by 10 μM SPA70
T30 construct: purchased DiscoverX (Ambit Biosciences) KINOMEscan
Outline: as §1

PRKX = biological target: T31, PRKX (Homo sapiens, UniProt P51817); settings: read-out: %Inhibition by 10 μM SPA70
T31 construct: purchased DiscoverX (Ambit Biosciences) KINOMEscan
Outline: as §1

RIPK5 = biological target: T32, RIPK5 (Homo sapiens, UniProt Q6XUX3); settings: read-out: %Inhibition by 10 μM SPA70
T32 construct: purchased DiscoverX (Ambit Biosciences) KINOMEscan
Outline: as §1

ROCK2 = biological target: T33, ROCK2 (Homo sapiens, UniProt O75116); settings: read-out: %Inhibition by 10 μM SPA70
T33 construct: purchased DiscoverX (Ambit Biosciences) KINOMEscan
Outline: as §1

SIK = biological target: T34, SIK (Homo sapiens, UniProt P57059)
T34 construct: purchased DiscoverX (Ambit Biosciences) KINOMEscan
Outline: as §1

TEC = biological target: T35, TEC (Homo sapiens, UniProt P42680); settings: read-out: %Inhibition by 10 μM SPA70
T35 construct: purchased DiscoverX (Ambit Biosciences) KINOMEscan
Outline: as §1

TLK1 = biological target: T36, TLK1 (Homo sapiens, UniProt Q9UKI8); settings: read-out: %Inhibition by 10 μM SPA70
T36 construct: purchased DiscoverX (Ambit Biosciences) KINOMEscan
Outline: as §1

TRKB = biological target: T37, TRKB (Homo sapiens, UniProt Q16620); settings: read-out: %Inhibition by 10 μM SPA70
T37 construct: purchased DiscoverX (Ambit Biosciences) KINOMEscan
Outline: as §1

TRKC = biological target: T38, TRKC (Homo sapiens, UniProt Q16288); settings: read-out: %Inhibition by 10 μM SPA70
T38 construct: purchased DiscoverX (Ambit Biosciences) KINOMEscan
Outline: as §1

TTK = biological target: T39, TTK (Homo sapiens, UniProt P33981); settings: read-out: %Inhibition by 10 μM SPA70
T39 construct: purchased DiscoverX (Ambit Biosciences) KINOMEscan
Outline: as §1

YANK1 = biological target: T40, YANK1 (Homo sapiens, UniProt Q8WU08); settings: read-out: %Inhibition by 10 μM SPA70
T40 construct: purchased DiscoverX (Ambit Biosciences) KINOMEscan
Outline: as §1

YES = biological target: T41, YES (Homo sapiens, UniProt P07947); settings: read-out: %Inhibition by 10 μM SPA70
T41 construct: purchased DiscoverX (Ambit Biosciences) KINOMEscan
Outline: as §1

YSK4 = biological target: T42, YSK4 (Homo sapiens, UniProt Q56UN5); settings: read-out: %Inhibition by 10 μM SPA70
T42 construct: purchased DiscoverX (Ambit Biosciences) KINOMEscan
Outline: as §1

p38-beta = biological target: T43, p38-beta (Homo sapiens, UniProt Q15759); settings: read-out: %Inhibition by 10 μM SPA70
T43 construct: purchased DiscoverX (Ambit Biosciences) KINOMEscan
Outline: as §1

T15 sequence (P32298 whole entry): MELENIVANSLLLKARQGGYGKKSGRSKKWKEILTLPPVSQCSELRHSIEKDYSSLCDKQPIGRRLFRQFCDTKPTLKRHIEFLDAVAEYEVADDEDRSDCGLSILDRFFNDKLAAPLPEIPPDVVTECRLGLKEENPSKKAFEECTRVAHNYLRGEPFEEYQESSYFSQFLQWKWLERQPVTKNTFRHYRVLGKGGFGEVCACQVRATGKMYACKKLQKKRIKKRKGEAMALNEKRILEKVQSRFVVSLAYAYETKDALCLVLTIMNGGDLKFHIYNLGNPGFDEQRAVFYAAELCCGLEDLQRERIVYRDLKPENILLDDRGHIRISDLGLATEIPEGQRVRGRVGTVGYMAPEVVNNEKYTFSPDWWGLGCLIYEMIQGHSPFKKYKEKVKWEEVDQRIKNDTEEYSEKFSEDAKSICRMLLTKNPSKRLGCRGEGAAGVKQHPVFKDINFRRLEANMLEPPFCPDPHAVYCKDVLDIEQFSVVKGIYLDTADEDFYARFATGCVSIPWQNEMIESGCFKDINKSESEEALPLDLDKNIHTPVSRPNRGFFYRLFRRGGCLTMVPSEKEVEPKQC
T38 sequence (Q16288 32-839): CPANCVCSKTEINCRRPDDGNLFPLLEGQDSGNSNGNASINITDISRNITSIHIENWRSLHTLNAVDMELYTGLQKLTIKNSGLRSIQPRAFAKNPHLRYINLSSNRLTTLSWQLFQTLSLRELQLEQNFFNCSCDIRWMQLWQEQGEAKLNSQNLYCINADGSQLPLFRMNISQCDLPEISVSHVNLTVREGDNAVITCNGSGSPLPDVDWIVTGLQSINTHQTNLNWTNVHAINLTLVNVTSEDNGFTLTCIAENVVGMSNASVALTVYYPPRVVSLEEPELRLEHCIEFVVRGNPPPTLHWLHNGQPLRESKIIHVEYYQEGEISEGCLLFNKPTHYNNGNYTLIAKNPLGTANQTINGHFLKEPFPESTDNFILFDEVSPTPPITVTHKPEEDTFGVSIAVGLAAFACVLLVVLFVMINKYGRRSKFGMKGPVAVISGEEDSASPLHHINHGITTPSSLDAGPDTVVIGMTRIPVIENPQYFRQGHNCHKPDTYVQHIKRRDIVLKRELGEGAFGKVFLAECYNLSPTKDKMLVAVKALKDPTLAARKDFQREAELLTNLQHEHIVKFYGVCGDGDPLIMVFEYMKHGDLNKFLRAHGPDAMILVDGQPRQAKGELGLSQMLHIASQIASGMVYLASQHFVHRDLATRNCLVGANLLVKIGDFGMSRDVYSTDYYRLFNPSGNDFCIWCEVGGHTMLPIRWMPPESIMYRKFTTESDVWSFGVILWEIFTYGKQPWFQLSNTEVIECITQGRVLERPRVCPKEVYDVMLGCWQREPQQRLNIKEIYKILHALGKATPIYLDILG
T4 sequence (Q8NFD2 whole entry): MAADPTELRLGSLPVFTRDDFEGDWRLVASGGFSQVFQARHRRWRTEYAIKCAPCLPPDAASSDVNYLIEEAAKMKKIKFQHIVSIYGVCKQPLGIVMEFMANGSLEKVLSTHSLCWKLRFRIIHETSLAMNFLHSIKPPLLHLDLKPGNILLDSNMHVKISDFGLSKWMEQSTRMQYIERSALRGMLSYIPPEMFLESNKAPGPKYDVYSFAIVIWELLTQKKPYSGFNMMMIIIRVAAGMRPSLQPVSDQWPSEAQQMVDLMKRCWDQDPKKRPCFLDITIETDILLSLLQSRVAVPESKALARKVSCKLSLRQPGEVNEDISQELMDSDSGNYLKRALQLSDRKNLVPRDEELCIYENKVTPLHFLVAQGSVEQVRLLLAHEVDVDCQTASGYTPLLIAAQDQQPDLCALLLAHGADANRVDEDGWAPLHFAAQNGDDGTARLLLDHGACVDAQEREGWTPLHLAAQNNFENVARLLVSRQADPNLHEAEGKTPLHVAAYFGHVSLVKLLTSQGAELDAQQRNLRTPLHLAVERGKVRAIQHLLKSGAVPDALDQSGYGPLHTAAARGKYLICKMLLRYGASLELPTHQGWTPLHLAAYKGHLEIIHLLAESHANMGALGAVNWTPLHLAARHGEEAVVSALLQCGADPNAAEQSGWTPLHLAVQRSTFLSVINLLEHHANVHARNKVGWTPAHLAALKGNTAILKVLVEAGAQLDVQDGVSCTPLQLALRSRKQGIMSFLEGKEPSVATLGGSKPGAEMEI
T20 sequence (O43283 whole entry): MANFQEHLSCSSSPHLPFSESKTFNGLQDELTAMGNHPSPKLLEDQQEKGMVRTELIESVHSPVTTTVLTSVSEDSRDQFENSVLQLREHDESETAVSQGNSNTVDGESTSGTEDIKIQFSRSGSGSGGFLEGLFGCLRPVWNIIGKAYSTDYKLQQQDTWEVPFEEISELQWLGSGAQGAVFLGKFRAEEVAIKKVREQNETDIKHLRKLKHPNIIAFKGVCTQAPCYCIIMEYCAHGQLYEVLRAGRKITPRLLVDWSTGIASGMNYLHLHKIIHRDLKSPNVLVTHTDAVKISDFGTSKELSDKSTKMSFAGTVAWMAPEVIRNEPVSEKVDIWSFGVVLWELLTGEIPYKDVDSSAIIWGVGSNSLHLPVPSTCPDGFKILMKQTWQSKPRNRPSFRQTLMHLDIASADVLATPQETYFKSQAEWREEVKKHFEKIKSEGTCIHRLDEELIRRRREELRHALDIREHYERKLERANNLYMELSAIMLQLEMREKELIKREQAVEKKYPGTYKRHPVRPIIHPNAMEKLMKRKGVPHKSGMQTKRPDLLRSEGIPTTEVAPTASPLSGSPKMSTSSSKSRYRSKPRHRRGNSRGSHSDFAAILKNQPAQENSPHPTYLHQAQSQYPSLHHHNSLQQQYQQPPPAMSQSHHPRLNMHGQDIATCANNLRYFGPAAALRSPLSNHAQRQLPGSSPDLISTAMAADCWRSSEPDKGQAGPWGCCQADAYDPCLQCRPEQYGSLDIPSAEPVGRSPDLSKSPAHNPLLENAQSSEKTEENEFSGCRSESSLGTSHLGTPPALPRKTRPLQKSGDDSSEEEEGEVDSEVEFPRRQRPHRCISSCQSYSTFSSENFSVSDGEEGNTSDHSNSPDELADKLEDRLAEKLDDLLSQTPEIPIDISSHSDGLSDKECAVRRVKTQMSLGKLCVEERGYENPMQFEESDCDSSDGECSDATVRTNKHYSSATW
T6 sequence (P51451 whole entry): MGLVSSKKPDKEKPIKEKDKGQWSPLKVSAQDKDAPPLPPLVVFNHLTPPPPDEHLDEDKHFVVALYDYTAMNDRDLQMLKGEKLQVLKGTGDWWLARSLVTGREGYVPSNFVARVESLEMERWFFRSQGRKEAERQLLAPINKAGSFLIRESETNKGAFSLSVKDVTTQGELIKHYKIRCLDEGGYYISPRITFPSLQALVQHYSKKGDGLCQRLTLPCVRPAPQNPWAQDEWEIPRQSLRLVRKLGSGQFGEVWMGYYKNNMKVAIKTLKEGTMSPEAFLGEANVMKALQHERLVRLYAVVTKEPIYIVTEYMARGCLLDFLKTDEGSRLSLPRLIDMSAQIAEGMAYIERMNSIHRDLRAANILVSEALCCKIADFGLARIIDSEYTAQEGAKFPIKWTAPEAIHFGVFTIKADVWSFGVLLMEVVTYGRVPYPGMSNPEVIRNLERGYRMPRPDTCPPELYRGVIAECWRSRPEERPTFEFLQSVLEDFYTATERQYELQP
T40 sequence (Q8WU08 whole entry): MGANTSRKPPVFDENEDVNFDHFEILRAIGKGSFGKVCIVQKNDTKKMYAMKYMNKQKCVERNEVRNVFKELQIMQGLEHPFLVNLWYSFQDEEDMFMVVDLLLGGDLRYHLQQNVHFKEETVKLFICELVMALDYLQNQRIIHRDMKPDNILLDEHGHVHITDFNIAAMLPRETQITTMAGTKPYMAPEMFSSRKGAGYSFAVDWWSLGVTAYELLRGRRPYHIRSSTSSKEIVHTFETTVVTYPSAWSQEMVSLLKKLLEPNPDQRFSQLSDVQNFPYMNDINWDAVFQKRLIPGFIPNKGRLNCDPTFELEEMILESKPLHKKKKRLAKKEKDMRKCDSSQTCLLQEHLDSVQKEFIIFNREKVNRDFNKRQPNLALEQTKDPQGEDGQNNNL
T31 sequence (P51817 whole entry): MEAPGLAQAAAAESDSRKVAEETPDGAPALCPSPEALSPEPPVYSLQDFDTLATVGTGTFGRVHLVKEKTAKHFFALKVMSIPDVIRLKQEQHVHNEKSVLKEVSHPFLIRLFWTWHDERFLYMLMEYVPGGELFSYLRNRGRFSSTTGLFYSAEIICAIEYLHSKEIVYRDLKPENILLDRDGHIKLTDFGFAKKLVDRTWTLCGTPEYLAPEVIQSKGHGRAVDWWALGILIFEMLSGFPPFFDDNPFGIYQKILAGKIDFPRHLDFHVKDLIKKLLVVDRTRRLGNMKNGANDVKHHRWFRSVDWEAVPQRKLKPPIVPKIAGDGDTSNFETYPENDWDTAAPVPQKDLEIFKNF
T9 sequence (Q09013 whole entry): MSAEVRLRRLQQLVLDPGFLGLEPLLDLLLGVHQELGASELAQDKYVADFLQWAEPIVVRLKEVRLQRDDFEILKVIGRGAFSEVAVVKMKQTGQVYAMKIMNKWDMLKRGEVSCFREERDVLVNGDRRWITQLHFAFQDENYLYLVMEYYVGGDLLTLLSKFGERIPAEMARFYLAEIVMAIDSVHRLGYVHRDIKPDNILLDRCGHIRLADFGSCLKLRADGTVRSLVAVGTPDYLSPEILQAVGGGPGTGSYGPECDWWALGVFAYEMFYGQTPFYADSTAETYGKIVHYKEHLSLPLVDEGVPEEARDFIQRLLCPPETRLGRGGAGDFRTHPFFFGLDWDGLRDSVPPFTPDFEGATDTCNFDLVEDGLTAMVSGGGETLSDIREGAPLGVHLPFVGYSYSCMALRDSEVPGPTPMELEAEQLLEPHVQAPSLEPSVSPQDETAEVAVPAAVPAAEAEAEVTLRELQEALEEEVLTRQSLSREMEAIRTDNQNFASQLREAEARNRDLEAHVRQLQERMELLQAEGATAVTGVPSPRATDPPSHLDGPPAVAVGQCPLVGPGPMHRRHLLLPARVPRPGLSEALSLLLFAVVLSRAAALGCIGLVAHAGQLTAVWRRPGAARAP

COc1ccc(OC)c(-n2nnc(S(=O)(=O)c3ccc(C(C)(C)C)cc3)c2C)c1 [SPA70]
inhibition at 10 µM (AAK1): 11% | inhibition at 10 µM (ABL1-nonphosphorylated): 0% | %Inhibition by 10 μM SPA70 (ACVR2B): 0% | inhibition at 10 µM (ANKK1): 0% | inhibition at 10 µM (AURKA): 0% | inhibition at 10 µM (BLK): 11% | inhibition at 10 µM (CAMK2A): 0% | inhibition at 10 µM (CAMK2B): 13% | inhibition at 10 µM (DMPK): 0% | inhibition at 10 µM (ERBB3): 42% | inhibition at 10 µM (ERBB4): 2% | inhibition at 10 µM (FGFR2): 0% | inhibition at 10 µM (FLT3): 0% | inhibition at 10 µM (FLT4): 2% | inhibition at 10 µM (GRK4): 0% | inhibition at 10 µM (HIPK2): 36% | %Inhibition by 10 μM SPA70 (JNK3): 9% | %Inhibition by 10 μM SPA70 (LATS2): 0% | inhibition at 10 µM (LRRK2): 0% | %Inhibition by 10 μM SPA70 (LZK): 0% | inhibition at 10 µM (MAP3K1): 0% | inhibition at 10 µM (MAP3K15): 0% | inhibition at 10 µM (MAP4K2): 0% | %Inhibition by 10 μM SPA70 (MAP4K3): 0% | inhibition at 10 µM (MKNK1): 44% | inhibition at 10 µM (MLK1): 0% | inhibition at 10 µM (MRCKA): 0% | %Inhibition by 10 μM SPA70 (MST1): 0% | inhibition at 10 µM (PIM2): 0% | inhibition at 10 µM (PIP5K1A): 0% | inhibition at 10 µM (PRKX): 8% | inhibition at 10 µM (RIPK5): 24% | inhibition at 10 µM (ROCK2): 13% | %Inhibition by 10 μM SPA70 (SIK): 0% | inhibition at 10 µM (TEC): 0% | inhibition at 10 µM (TLK1): 23% | inhibition at 10 µM (TRKB): 0% | inhibition at 10 µM (TRKC): 0% | inhibition at 10 µM (TTK): 0% | inhibition at 10 µM (YANK1): 0% | inhibition at 10 µM (YES): 2% | inhibition at 10 µM (YSK4): 0% | inhibition at 10 µM (p38-beta): 0%
